Test results published in patent US20240352121A1, “LAIR-1 AGONISTIC ANTIBODIES AND METHODS OF USE THEREOF” (NEXTCURE, INC., priority 2023, published 2024).

System: SHP-1
Assay: SHP-1 phosphorylation in primary patient AML blasts (Western blot)
Type: cell-based, human
Conditions: collagen alone
Description: FIGS. 4A-4O show the collagen matrix is vital to LAIR-1 induced AML cell death. (FIGS. 4A-C). Flow cytometry quantification of primary live, dead, or apoptotic total blood leukocytes after ex vivo treatment with 10 μg/mL IgG isotype control (gray) or LAIR-1 mAb (red) in the presence (FIG. 4A) or absence (FIG. 4B) of exogenous collagen, or (FIG. 4C), CD451^Lo SSC^Lo blast cells in the presence of isotype control or LAIR-1 mAb. N=3 technical replicates. […] Each dot represents an individual donor. Red shading highlights surface expression >20000 arbitrary units. Blue shading highlights expression <20000 units. Line represents simple linear regression. […] N=4-7 donors. […] Mean pixel density from Western blotting normalized to isotype control condition and graphed relative to total SHP-1. N=3 technical replicates. […] FIGS. 4M and 4N) 4E-BP1 expression as measured by Lumit assay (FIG. 4M) or cleaved caspase-7 as measured by Western blot (FIG. 4N) of cells treated as shown in FIGS. 4I-4K. […] P values calculated by Student's t test. […]
For assessment of signaling in healthy cells, human monocytes were isolated from PBMCs from two donors using a StemCell monocyte isolation kit (StemCell, Vancouver, BC). […] Data were quantified using FIJI (NIH, MD).

collagen: plate-coated human Collagen I, LAIR-1 ligand, mimics an extracellular matrix [reference compound]
pSHP-1 relative to control: limited increase
